In patent EP0168112A2, “Alpha-L-aspartyl-D-phenylglycine esters and amides useful as high intensity sweeteners” (THE PROCTER & GAMBLE COMPANY, priority 1984, dated 1986):
Square brackets hold non-standard residues; d marks the D form. Peptide text beside a SMILES is read from it. Phg = N[C@H](C(=O)O)c1ccccc1

Assay: Sweetness intensity relative to sucrose, taste panel comparison with five sucrose standard samples
Assay type: in vivo, Male subjects
Conditions: relative to sucrose (w/v); test sample about 22°C, prepared at a concentration equal to about 8-10% sucrose
Description: The subjects were asked to taste and expectorate about 10 ml of a test sample (temperature of about 22°C) having dissolved therein the ester or amide. The subjects were then asked to compare the sweetness of the test sample with five standard samples which contained increasing amounts of sucrose. The standard samples were letter coded A, B, C, D and E and were designated on a ballot by a closed linear scale. Sweetness intensity of the test sample was recorded by the subject making a mark on the linear scale at a point they considered equal in sweetness among the standard samples; interpolation between standards was encouraged. After completion of the panel, a five point numeric scale was superimposed on the linear scales to obtain numerical data; data were averaged and recorded to the nearest 0.25 unit. Equivalent sucrose sweetness was determined by referring to graphs of (wlv) sucrose concentration in the standard samples versus a linear numeric scale.
Sweetness intensity was calculated by dividing the concentration (w/v) of perceived sweeteness by the concentration (wlv) of the ester or amide required to produce that sweetness. […] The test sample was prepared at a concentration which would be equal to about 8-10% sucrose.

Molecule | sweetness intensity
CC(OC(=O)[C@H](NC(=O)[C@@H](N)CC(=O)O)c1ccccc1)C(C)(C)C (stereo partly drawn) [Example 2, 3,3-Dimethyl-2-butyl ester] | 30 X
alpha-L-Aspartyl-D-phenylglycine-(-)-beta-fenchyl ester [Example 8a] | 600 X
(±) endo-Norbornyl ester [Example 5] | 20 X
N[C@@H](CC(=O)O)C(=O)N[C@@H](C(=O)NC(C1CC1)C1CC1)c1ccccc1 [Example 12, alpha-L-Aspartyl-D-phenylglycinedicyclopropylcarbinyl amide] | 80 X
(±) exo-Norbornyl ester [Example 6] | 150 X
CC1(C)[C@@H]2CC[C@@](C)(C2)[C@@H]1OC(=O)[C@H](NC(=O)[C@@H](N)CC(=O)O)c1ccccc1 [Example 1, alpha-L-Aspartyl-D-phenylglycine-(-)-alpha-fenchyl ester] | 1750 X
alpha-L-Aspartyl-D-phenylglycine-(+)-beta-fenchyl ester [Example 8b] | 5000 X
CC1CCC(C)C1OC(=O)[C@H](NC(=O)[C@@H](N)CC(=O)O)c1ccccc1 (stereo partly drawn) [Example 4, 2,5-Dimethylcyclopentyl ester] | 370 X

Assay: Sweetness intensity based on informal panel testing
Assay type: in vivo
Conditions: not given

Molecule | sweetness intensity
CC1(C)SC(C)(C)C1NC(=O)[C@H](NC(=O)[C@@H](N)CC(=O)O)c1ccccc1 [Example 11, alpha-L-Aspartyl-D-phenylglycine-2,2,4,4-tetramethylthietan-3-yl amide] | 100 X
alpha-L-Aspartyl-D-phenylglycine-alpha-7-oxa-fenchyl ester [Example 14] | approximately 1000 X

Assay: Solubility for the sweetness intensity measurement
Assay type: physicochemical
Conditions: sweetness intensity test sample

Molecule | solubility
CC1CCCC(C)C1NC(=O)[C@H](NC(=O)[C@@H](N)CC(=O)O)c1ccccc1 (stereo partly drawn) [Example 10, 2,6-Dimethylcyclohexyl amide] | too Insoluble for an accurate sweetness intensity measurement

Assay: not given
Conditions: prior art value; cited from earlier work

Molecule | sweetness intensity
C[C@@H](NC(=O)[C@@H](N)CC(=O)O)C(=O)NC(C1CC1)C1CC1 [dicyclopropylcarbinyl] | 1200 times that of sucrose
CCOC(=O)C(NC(=O)[C@@H](N)CC(=O)O)C(=O)OC1C2(C)CCC(C2)C1(C)C (stereo partly drawn) [R' is fenchyl and R is ethyl] | 4200-5400 times that of sucrose
COC(=O)[C@H](Cc1ccccc1)NC(=O)[C@@H](N)CC(=O)O [aspartame, alpha-L-aspartyl-L-phenylalanine methyl ester] (H-Asp-Phe-OMe) | 150-200 times that of sucrose
O=C1NS(=O)(=O)c2ccccc21 [Saccharin, saccharin] | about 300 times that of sucrose
CC1CCCC(C)C1NC(=O)[C@@H](C)NC(=O)[C@@H](N)CC(=O)O (stereo partly drawn) [2,6-dimethylcyclohexyl] | 600 times that of sucrose
C[C@@H](NC(=O)[C@@H](N)CC(=O)O)C(=O)NC1C(C)(C)S(=O)(=O)C1(C)C | 1000 times that of sucrose
CC1CCC(C)C1NC(=O)[C@@H](C)NC(=O)[C@@H](N)CC(=O)O (stereo partly drawn) [2,5 dimethylcyclopentyl] | 520 times that of sucrose
COC(=O)C(NC(=O)[C@@H](N)CC(=O)O)C(=O)OC1C2(C)CCC(C2)C1(C)C (stereo partly drawn) [R' is fenchyl and R is methyl] | 22,200-33,200 times that of sucrose
COC(=O)[C@@H](NC(=O)[C@@H](N)CC(=O)O)c1ccccc1 [methyl ester of L-aspartyl-L-phenylglycine] (H-Asp-[Phg]-OMe) | 100-1000 times that of sucrose
C[C@@H](NC(=O)[C@@H](N)CC(=O)O)C(=O)NC1C(C)(C)SC1(C)C [2,2,4,4-tetramethylthietan-3-yl] | 2000 times that of sucrose

Same assay, conditions: taste description from prior art; cited from earlier work

Molecule | taste
COC(=O)[C@@H](Cc1ccccc1)NC(=O)[C@@H](N)CC(=O)O [methyl ester of L-aspartyl-D-phenylalanine] (H-Asp-[dF]-OMe) | bitter
COC(=O)[C@@H](NC(=O)[C@@H](N)CC(=O)O)c1ccccc1 [methyl ester of L-aspartyl-L-phenylglycine] (H-Asp-[Phg]-OMe) | quite sweet

Assay: not given
Conditions: in most carbonated beverages; background statement; cited from earlier work

Molecule | hydrolytic stability
COC(=O)[C@H](Cc1ccccc1)NC(=O)[C@@H](N)CC(=O)O [aspartame, alpha-L-aspartyl-L-phenylalanine methyl ester] (H-Asp-Phe-OMe) | hydrolytically unstable
